The target of the experiment is T1, Mineralocorticoid receptor (Homo sapiens) (UniProt P08235).
T1 sequence (whole entry): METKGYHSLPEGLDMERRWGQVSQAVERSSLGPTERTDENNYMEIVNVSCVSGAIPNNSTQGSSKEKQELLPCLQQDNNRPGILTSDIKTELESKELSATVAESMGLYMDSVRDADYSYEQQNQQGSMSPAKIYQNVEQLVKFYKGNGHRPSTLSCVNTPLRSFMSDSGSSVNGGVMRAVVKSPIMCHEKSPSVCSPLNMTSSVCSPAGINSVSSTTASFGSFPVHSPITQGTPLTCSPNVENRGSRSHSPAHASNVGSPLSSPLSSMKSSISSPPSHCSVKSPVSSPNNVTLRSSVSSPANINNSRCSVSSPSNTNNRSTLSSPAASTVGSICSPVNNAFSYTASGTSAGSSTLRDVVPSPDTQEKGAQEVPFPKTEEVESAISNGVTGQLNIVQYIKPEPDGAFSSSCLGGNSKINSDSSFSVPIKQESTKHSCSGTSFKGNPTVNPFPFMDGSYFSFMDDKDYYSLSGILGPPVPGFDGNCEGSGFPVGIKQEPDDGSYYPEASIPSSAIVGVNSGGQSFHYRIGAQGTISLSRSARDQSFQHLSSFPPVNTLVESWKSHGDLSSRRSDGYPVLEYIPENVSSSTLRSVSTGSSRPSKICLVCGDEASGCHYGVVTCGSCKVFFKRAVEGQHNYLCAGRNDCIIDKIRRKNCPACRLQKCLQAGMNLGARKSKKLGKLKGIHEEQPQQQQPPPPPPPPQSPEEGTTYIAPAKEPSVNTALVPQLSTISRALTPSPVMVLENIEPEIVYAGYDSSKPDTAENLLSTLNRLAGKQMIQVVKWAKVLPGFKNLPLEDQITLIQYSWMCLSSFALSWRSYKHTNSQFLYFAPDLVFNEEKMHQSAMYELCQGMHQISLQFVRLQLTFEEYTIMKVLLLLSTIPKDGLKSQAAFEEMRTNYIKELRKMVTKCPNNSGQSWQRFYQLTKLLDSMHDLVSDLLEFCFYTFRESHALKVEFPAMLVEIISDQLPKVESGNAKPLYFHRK
Kind of experiment: Displacement of [3H]aldosterone from mineralocorticoid receptor of rabbit kidney. As to conditions: Oryctolagus cuniculus; target entry is the homologue from another species. On the technique in general: Loss of bound radioactivity is the signal in a displacement assay; it reports binding, not function.
Consider `COCCC[C@H]1C[C@@]2(C)C(CC[C@@]23CCC(=O)O3)C2CCC3=CC(=O)CCC3=C21` (some centres undefined), for which the RBA was determined as 0.5%.

Turning to `CC(C)(C)OCCC[C@H]1C[C@@]2(C)C(CC[C@@]23CCC(=O)O3)C2CCC3=CC(=O)CCC3=C21` (some centres undefined), the RBA was under 0.1%.

`C[C@]12CCC(=O)C=C1CC[C@@H]1[C@@H]2[C@@H](O)C[C@]2(C=O)[C@@H](C(=O)CO)CC[C@@H]12`: the RBA amounted to 100%.

On to `CC(=O)S[C@@H]1CC2=CC(=O)CC[C@]2(C)[C@H]2CC[C@@]3(C)[C@@H](CC[C@@]34CCC(=O)O4)[C@H]12`, for which the RBA stood at 4%.

In the case of `CC(=O)S[C@@H]1CC2=CC(=O)C=C[C@]2(C)[C@H]2CC[C@@]3(C)[C@@H]([C@@H]4C[C@@H]4[C@@]34CCC(=O)O4)[C@H]12`, the RBA came out at 21%.

Take `C[C@]12C[C@H](CCCO)C3=C4CCC(=O)C=C4CCC3C1CC[C@@]21CCC(=O)O1` (some centres undefined): the RBA is under 0.1%.

Turning to `C[C@H]1C[C@@]2(C)C(CC[C@@]23CCC(=O)O3)C2CCC3=CC(=O)CCC3=C21` (some centres undefined), the RBA amounted to 6%.

`C=C[C@H]1C[C@@]2(C)C(CC[C@@]23CCC(=O)O3)C2CCC3=CC(=O)CCC3=C21` (some centres undefined) had an RBA of 14%.

On to `C[C@]12CCC3=C4CCC(=O)C=C4CCC3C1CC[C@@]21CCC(=O)O1` (some centres undefined), for which the RBA came to 13%.

The molecule `C/C=C1\C[C@@]2(C)C(CC[C@@]23CCC(=O)O3)C2CCC3=CC(=O)CCC3=C12` (some centres undefined) yielded an RBA of 7%.

In turn, `C[C@@H]1C[C@H]2[C@@H]3CCC4=CC(=O)C=C[C@]4(C)[C@@]3(F)[C@@H](O)C[C@]2(C)[C@@]1(O)C(=O)CO` registered an RBA of 20%.

The molecule `C=C/C=C1\C[C@@]2(C)C(CC[C@@]23CCC(=O)O3)C2CCC3=CC(=O)CCC3=C12` (some centres undefined) had an RBA of 2%.

As for `C[C@]12CCC(=O)C=C1C=C[C@@H]1[C@@H]2CC[C@@]2(C)[C@H]1CC[C@@]21CCC(=O)O1`, the RBA is 1%.

For `C=C=C[C@H]1C[C@@]2(C)C(CC[C@@]23CCC(=O)O3)C2CCC3=CC(=O)CCC3=C21` (some centres undefined), the RBA amounted to 110%.

The record behind these values is ChEMBL document CHEMBL1126937, “Synthesis of new 11 beta-substituted spirolactone derivatives. Relationship with affinity for mineralocorticoid and glucocorticoid receptors” (J Med Chem, 1993).
